Measurements taken from PMC9599613 (Biomolecules, 2022).
Where two headings read alike, the source gives them in different places.

Columns and labels:
[1] = molecular target: T1, acetylcholinesterase (AChE) (Electrophorus electricus, UniProt O42275); assay: Anticholinesterase assay (Ellman's), AChE inhibition; format: biochemical
T1 construct: acetylcholinesterase (AChE, obtained from Electrophorus electricus); from tissue
Protocol: (§1) This enzyme method relied on the hydrolytic of acetyl cholinethioiodide (ATChI) by acetylcholinesterase and butyrylthiocholine iodide (BTchI) by butyrylcholinesterase. As a result of this breakdown, 5-thio-2-nitrobenoate anions formed. […] The absorption was measured with a spectrophotometer, as per the protocols. […] An amount of 0.1 M phosphate buffer (8.0 ± 0.1 pH) solution was prepared, whose final pH was adjusted by using the KOH solution.
(§2) In this assay, 50 µL enzyme solution and 50 µL DTNB reagent were added to 1 mL test samples in a cuvette and then incubated at 30 °C for 15 min. Afterward, a 50 µL substrate solution was added to the mixture.

[2] = molecular target: T2, butyrylcholinesterase (BChE) (Equus caballus, UniProt P81908); assay: Anticholinesterase assay (Ellman's), BChE inhibition; format: biochemical, equine
T2 construct: butyrylcholinesterase (BChE, obtained from equine serum); from tissue; host or cells: equine serum
T2 sequence (P81908 whole entry): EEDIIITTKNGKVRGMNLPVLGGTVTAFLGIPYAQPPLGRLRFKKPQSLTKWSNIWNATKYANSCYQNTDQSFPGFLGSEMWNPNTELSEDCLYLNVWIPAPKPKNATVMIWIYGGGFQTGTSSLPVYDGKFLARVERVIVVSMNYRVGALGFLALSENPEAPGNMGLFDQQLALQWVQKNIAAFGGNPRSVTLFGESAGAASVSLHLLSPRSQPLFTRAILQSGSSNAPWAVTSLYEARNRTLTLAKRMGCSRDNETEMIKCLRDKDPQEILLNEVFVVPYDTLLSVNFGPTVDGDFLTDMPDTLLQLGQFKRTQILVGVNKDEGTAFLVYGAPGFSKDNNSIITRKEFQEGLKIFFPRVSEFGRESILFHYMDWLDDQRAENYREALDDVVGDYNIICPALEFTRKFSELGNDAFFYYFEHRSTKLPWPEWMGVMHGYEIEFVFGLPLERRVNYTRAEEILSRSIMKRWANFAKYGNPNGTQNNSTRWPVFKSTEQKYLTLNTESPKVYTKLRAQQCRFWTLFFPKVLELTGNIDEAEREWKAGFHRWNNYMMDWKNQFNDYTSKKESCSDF
Protocol: as §1, §2

[3] = molecular target: COX-1 (Homo sapiens, UniProt P23219); assay: biochemical; settings: read-out: % COX-1 Inhibition
Chain of COX-1 (P23219 24-599): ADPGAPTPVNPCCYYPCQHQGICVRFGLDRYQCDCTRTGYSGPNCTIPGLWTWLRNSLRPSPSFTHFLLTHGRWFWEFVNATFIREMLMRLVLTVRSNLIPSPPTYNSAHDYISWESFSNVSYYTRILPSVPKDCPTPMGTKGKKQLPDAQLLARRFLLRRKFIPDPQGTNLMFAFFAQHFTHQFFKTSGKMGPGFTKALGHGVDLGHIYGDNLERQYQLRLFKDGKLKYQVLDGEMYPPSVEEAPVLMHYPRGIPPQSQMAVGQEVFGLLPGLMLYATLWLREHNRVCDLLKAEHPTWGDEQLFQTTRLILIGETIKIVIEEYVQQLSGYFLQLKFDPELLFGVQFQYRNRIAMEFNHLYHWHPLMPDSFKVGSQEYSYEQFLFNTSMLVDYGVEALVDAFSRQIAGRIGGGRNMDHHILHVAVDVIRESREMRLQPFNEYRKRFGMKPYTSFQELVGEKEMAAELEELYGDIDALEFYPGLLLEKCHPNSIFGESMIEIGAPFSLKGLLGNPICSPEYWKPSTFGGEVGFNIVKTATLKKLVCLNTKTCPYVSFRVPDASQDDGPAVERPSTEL
Protocol: (§3) The Cyclooxygenase enzymes (COX-1 and 2) inhibitory potential of our test compounds was determined according to the previously reported procedure. […] The enzyme solutions with a concentration of 0.7–0.8 μg/10 μL (COX-1) and 300 U/mL (COX-2) were prepared. To start the assay, for enzyme activation, 10 µL enzyme solution (kept in a cool temperature of 4 °C for 5 min) and cofactor containing hematin (50 µL, 1 mM), glutathione (0.9 mM) and TMPD in a Tris-buffer (0.1 M) with a pH 8.0 was added. After that, 60 µL of the enzyme solution was added to 20 µL of the test samples of various concentrations and incubated at room temperature for 5 to 10 min. Then, 20 µL of arachidonic acid (30 mM) was added to start the reaction. The mixture was then again incubated for 15 min at 37 °C, and absorbances were measured at 570 nm with UV-visible spectrophotometer. […] The % enzyme inhibitions were calculated by using the previously reported formula.

[4] = molecular target: T3, COX-2 (Homo sapiens, UniProt P35354); assay: biochemical
T3 sequence (P35354 18-604): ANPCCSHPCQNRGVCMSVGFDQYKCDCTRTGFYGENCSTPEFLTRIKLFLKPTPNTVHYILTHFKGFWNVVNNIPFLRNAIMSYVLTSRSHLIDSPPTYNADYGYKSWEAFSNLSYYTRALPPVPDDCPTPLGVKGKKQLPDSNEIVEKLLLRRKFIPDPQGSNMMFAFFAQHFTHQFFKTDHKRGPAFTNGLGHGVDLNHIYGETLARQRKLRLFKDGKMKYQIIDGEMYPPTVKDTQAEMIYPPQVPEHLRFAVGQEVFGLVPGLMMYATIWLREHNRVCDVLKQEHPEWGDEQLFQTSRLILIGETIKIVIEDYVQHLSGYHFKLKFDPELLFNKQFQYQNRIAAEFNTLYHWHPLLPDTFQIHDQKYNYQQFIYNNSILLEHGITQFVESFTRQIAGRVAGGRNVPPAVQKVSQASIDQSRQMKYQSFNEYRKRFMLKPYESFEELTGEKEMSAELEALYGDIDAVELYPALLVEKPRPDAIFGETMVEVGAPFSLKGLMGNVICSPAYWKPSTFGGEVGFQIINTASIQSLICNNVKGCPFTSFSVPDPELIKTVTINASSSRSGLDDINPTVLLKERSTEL
Protocol: as §3

[5] = molecular target: T4, human recombinant 5-LOX (Homo sapiens, UniProt P09917); assay: biochemical; settings: for inhibition at 62.5 µg/mL / inhibition at 125 µg/mL / inhibition at 250 µg/mL / inhibition at 500 µg/mL / inhibition at 1000 µg/mL: read-out: % 5-LOX Inhibition
T4 sequence (P09917 1-674): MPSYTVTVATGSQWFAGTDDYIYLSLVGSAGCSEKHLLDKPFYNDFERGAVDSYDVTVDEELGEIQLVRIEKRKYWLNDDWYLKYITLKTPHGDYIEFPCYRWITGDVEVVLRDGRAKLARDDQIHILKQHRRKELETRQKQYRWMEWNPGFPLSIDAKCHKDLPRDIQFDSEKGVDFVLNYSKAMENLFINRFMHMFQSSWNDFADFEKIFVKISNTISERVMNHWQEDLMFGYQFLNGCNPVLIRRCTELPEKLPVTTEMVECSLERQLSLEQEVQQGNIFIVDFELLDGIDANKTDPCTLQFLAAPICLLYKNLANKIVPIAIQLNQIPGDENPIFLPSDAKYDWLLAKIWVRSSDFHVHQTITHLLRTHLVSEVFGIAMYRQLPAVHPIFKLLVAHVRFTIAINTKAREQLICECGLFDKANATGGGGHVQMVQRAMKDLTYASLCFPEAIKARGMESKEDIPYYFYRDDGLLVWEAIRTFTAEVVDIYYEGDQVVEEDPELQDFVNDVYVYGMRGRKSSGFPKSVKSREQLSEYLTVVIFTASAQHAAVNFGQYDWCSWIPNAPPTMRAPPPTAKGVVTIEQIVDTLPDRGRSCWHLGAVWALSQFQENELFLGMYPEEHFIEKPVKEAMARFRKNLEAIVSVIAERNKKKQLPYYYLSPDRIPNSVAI
Protocol: The lipoxygenase assay on our test compounds was performed by utilizing human recombinant 5-LOX [65]. […] The enzyme solution with a concentration of 10,000 U/mL was prepared, whereas 80 mM linoleic acid solution was used as a substrate. Solutions were prepared in a phosphate buffer (50 mM) with a pH of 6.3, which was also utilized as the blank. To start, various concentrations of our test samples were dissolved in 0.25 mL of the buffer, to which 0.25 mL enzyme solution was added and incubated at 25 °C for 5 min. Afterward, the substrate solution (0.1 mL) was added to the mixture and shaken well. […] In this assay, the standard drug was montelukast, and using the following formula, the % inhibitions were calculated: % enzyme inhibition=X−X1/X×100 where X = absorbance of the negative control (with no test sample), and X1 = absorbance of the test compound.

[6] = ABTS free radical scavenging assay
Protocol: The antioxidant potentials of isolated phytosteroids 1 and 2 were also determined using the ABTS (2,2′-azino-bis(3-ethylbenzothiazoline-6-sulfonic acid)) standard method. […] This created free radicals within the sample. Afterward, the addition of 50% methanol and the ABTS radical cation solution were adjusted to pH 7.4 by dilution with the phosphate buffer (pH 7.4). […] The positive control was ascorbic acid, and the assay was repeated in triplicate. The percent radical scavenging potential of the test compounds was calculated using the standard reported formula.

[7] = DPPH free radical scavenging assay
Protocol: The antioxidant potentials of isolated compounds (phytosteroids 1 and 2) were determined following the DPPH standard assay. Initially, DPPH (24 mg) was dissolved in methanol (100 mL). Stock solutions of the test compounds were prepared in different dilutions (62.50–1000 μg/mL). From each dilution, 1 mL was mixed with 1 mL of the DPPH solution. The solution mixtures were incubated at room temperature for 0.5 h. Afterward, absorbance was recorded at 517 nm with a UV-visible spectrophotometer. Ascorbic acid was the standard drug, whereas the DPPH solution without the compound was negative control. The percent radical scavenging potential of the test compounds was calculated using the following formula: % DPPH activity=X−X1/X×100 where X = absorbance of the control, and X1 = absorbance of the test compound.

[8] = 1000 μg/mL, listed as compound 1

T1 sequence (O42275 24-633): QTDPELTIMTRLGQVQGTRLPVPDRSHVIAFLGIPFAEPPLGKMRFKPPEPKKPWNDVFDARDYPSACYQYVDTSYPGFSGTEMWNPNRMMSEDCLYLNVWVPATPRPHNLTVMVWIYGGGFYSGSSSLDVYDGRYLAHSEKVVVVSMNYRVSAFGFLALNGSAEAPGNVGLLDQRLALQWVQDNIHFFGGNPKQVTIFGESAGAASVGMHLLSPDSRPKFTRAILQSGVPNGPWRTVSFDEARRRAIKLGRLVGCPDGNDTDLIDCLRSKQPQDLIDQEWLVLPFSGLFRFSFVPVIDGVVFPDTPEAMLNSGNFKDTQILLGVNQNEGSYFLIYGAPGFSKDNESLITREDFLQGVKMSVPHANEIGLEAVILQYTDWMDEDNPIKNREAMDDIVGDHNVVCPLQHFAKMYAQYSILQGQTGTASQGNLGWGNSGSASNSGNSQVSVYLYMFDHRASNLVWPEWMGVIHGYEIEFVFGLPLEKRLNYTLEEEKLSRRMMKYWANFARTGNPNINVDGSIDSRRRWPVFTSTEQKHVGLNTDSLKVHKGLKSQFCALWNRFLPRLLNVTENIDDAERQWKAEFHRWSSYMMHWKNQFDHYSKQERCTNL

CC(C)C/C=C\C(C)C1CCC2C3CCC4=CC(=O)CCC4(C)C3CCC12C (stereo not drawn) [Compound 1, (Z)-10,13-dimethyl-17-(6-methylhept-3-en-2-yl)-1,2,6,7,8,9,10,11,12,13,14,15,16,17-tetradecahydro-3H-cyclopenta[a]phenanthren-3-one]
AChE inhibition (%) ([1]; 62.5 μg/mL): 55.56 ± 0.52 %
AChE inhibition (%) ([1]; 125 μg/mL): 64.78 ± 0.60 %
AChE inhibition (%) ([1]; 250 μg/mL): 71.46 ± 0.53 %
AChE inhibition (%) ([1]; 500 μg/mL): 77.68 ± 0.63 %
AChE inhibition (%) ([1]; 1000 μg/mL): 85.72 ± 0.79 ^ns %
IC50 ([1]; read-out: AChE IC50 (converted)): 53 µM
IC50 [2]: 71.5 µM
Percent BChE (mean ± SEM) ([2]; 62.5 μg/mL): 59.81 ± 0.65 %
Percent BChE (mean ± SEM) ([2]; 125 μg/mL): 66.65 ± 0.78 %
Percent BChE (mean ± SEM) ([2]; 250 μg/mL): 75.70 ± 0.62 %
Percent BChE (mean ± SEM) ([2]; 500 μg/mL): 80.76 ± 0.63 %
Percent BChE (mean ± SEM) ([2]; 1000 μg/mL): 84.83 ± 0.62 %
inhibition at 62.5 µg/mL [3]: 22.4 ± 0.49%
inhibition at 125 µg/mL [3]: 40.6 ± 0.84%
inhibition at 250 µg/mL [3]: 43.5 ± 0.46%
inhibition at 500 µg/mL [3]: 59.56 ± 0.45%
inhibition at 1000 µg/mL [3]: 66.29 ± 0.43%
IC50 [4]: 28 µM
inhibition at 62.5 µg/mL ([4]; read-out: % COX-2 Inhibition): 61.1 ± 0.7%
inhibition at 125 µg/mL ([4]; read-out: % COX-2 Inhibition): 66.4 ± 0.7%
inhibition at 250 µg/mL ([4]; read-out: % COX-2 Inhibition): 72.7 ± 0.51%
inhibition at 500 µg/mL ([4]; read-out: % COX-2 Inhibition): 78.83 ± 0.73%
inhibition at 1000 µg/mL ([4]; read-out: % COX-2 Inhibition): 83.13 ± 0.8%
IC50 [5]: 19.3 µM
inhibition at 62.5 µg/mL [5]: 65.68 ± 0.64%
inhibition at 125 µg/mL [5]: 71.42 ± 0.46%
inhibition at 250 µg/mL [5]: 76.53 ± 0.41%
inhibition at 500 µg/mL [5]: 82.45 ± 0.55%
inhibition at 1000 µg/mL [5]: 87.63 ± 0.64%
ABTS IC50 [6]: 369.86 µg/mL
Percent ABTS Activity (mean ± SEM) ([6]; 62.5 μg/mL): 29.67 ± 0.61 %
Percent ABTS Activity (mean ± SEM) ([6]; 125 μg/mL): 35.69 ± 0.77 %
Percent ABTS Activity (mean ± SEM) ([6]; 250 μg/mL): 43.83 ± 0.56 %
Percent ABTS Activity (mean ± SEM) ([6]; 500 μg/mL): 54.60 ± 0.80 %
Percent ABTS Activity (mean ± SEM) ([6]; 1000 μg/mL): 62.61 ± 0.77 %
Percent ABTS Activity (mean ± SEM) [6, 8]: 62.61 ± 0.77%
DPPH IC50 [7]: 314.78 µg/mL
Percent DPPH Activity (mean ± SEM) ([7]; 62.5 μg/mL): 31.53 ± 0.71 %
Percent DPPH Activity (mean ± SEM) ([7]; 125 μg/mL): 37.51 ± 0.77 %
Percent DPPH Activity (mean ± SEM) ([7]; 250 μg/mL): 45.75 ± 0.58 %
Percent DPPH Activity (mean ± SEM) ([7]; 500 μg/mL): 56.45 ± 0.49 %
Percent DPPH Activity (mean ± SEM) ([7]; 1000 μg/mL): 64.79 ± 0.62 %
Percent DPPH Activity (mean ± SEM) [7, 8]: 64.79 ± 0.62%

O=C1O[C@H]([C@@H](O)CO)C(O)=C1O [AA, Ascorbic acid, reference compound]
ABTS IC50 [6]: 21.72 µg/mL
Percent ABTS Activity (mean ± SEM) ([6]; 62.5 μg/mL): 53.00 ± 0.57%
Percent ABTS Activity (mean ± SEM) ([6]; 125 μg/mL): 62.50 ± 0.44%
Percent ABTS Activity (mean ± SEM) ([6]; 250 μg/mL): 66.33 ± 0.33%
Percent ABTS Activity (mean ± SEM) ([6]; 500 μg/mL): 74.66 ± 1.20%
Percent ABTS Activity (mean ± SEM) ([6]; 1000 μg/mL): 79.00 ± 0.16%
DPPH IC50 [7]: 11.47 µg/mL
Percent DPPH Activity (mean ± SEM) ([7]; 62.5 μg/mL): 61.30 ± 0.52%
Percent DPPH Activity (mean ± SEM) ([7]; 125 μg/mL): 66.37 ± 0.58%
Percent DPPH Activity (mean ± SEM) ([7]; 250 μg/mL): 72.29 ± 0.43%
Percent DPPH Activity (mean ± SEM) ([7]; 500 μg/mL): 78.58 ± 0.56%
Percent DPPH Activity (mean ± SEM) ([7]; 1000 μg/mL): 84.39 ± 0.60%

CC(=O)Oc1ccccc1C(=O)O [Aspirin, aspirin, reference compound]
inhibition at 62.5 µg/mL ([3]; 62.50 μg/mL): 51.68 ± 0.22%
inhibition at 125 µg/mL ([3]; 125 μg/mL): 59.84 ± 0.32%
inhibition at 250 µg/mL ([3]; 250 μg/mL): 66.43 ± 0.29%
inhibition at 500 µg/mL ([3]; 500 μg/mL): 71.88 ± 0.2%
inhibition at 1000 µg/mL ([3]; 1000 μg/mL): 75.89 ± 0.2%

CC(C)(O)c1ccccc1CC[C@@H](SCC1(CC(=O)O)CC1)c1cccc(/C=C/c2ccc3ccc(Cl)cc3n2)c1 [Montelukast, montelukast, reference compound]
IC50 [5]: 7.68 µM
inhibition at 62.5 µg/mL ([5]; 62.50 μg/mL): 74.17 ± 0.72%
inhibition at 125 µg/mL ([5]; 125 μg/mL): 79.6 ± 0.9%
inhibition at 250 µg/mL ([5]; 250 μg/mL): 85.5 ± 0.4%
inhibition at 500 µg/mL ([5]; 500 μg/mL): 89.4 ± 1.65%
inhibition at 1000 µg/mL ([5]; 1000 μg/mL): 93.55 ± 0.4%
